Test results published in US10604476B2, “Fluorinated amide derivatives and their uses as therapeutic agents” (Trillium Therapeutics Inc., priority 2015, dated 2020).

Tests used:
gross motor function [1] = test: Fixed speed rotorod, rat (gross motor function); conditions: Sprague-Dawley, in vivo, po
Procedure: On the test day following a defined drug pretreatment period, rats received a maximal electroshock (150 mA, 0.2 s duration, 60 Hz) via corneal electrodes. Protection was defined as absence of a full tonic seizure within 10 s of stimulus delivery. Twenty minutes before the MES procedure, the animals were tested on a fixed speed rotorod (best score from 3 trials at 8 r.p.m, trial duration=60 s) to give an early assessment of drug effect on gross motor function.

6 Hz psychomotor seizure = test: Mouse 6 Hz model; format: in vivo; conditions: mice, ip, 0.5 hour, 32 mA
Procedure: Male, Sprague-Dawley rats and CD-1 mice were used for all studies. All animals were allowed ad-lib access to food and water except during experiment. Animals were housed within an animal vivarium maintained under a 12 h light:dark cycle (lights on: 07:00 h), and all experiments were conducted in the animals light phase. For all experiments, animals were habituated to the vivarium for a minimum of 72 h before experimentation. The experimental procedures used in the present investigation were conducted under the Association for Assessment and Accreditation of Laboratory Animal Care (AAALAC) and the Canadian Council on Animal Care (CCAC) guidelines. All compounds were sonicated in 5% Tween 80® in saline or methylcellulose 0.5% (wgt/vol), using MC and sterile water and injected in a dose volume of 5 ml/kg or 10 ml/kg (rat), and 10 ml/kg (mouse). Drugs were administered by either the oral, intraperitoneal or intravenous route. […] Preliminary experiments established that these stimulus parameters elicited a psychomotor seizure, defined as the expression of at least one of the following behaviors: stun/immobility, forelimb clonus, straub tail, vibrissae tremor, lateral head movement in >95% of control animals. Protection was defined as complete absence of all the above behaviors within 20 s of stimulus delivery. The effective dose of compound necessary to protect against psychomotor seizures to 50% of controls (i.e. ED50) was determined by curve fitting program (Prism v.4.02).

gross motor function [2] = test: Rotorod, mouse (Table 8); conditions: in vivo, po, Table 8, mouse
[3] = test system: fully kindled (stage 5) seizures, hippocampal kindled rat; test: Hippocampal kindled rat model (focal seizures); format: in vivo; conditions: for suppression of fully kindled (stage 5) seizures compared to vehicle controls: <100 mg/kg i.p.
Source text: Hippocampal Kindled Rat Test is designed to quantify the anti-convulsant effects of a test compound in the kindled rat model. Rats treated by i.p. injection.
The Kindled Rat is a model of temporal lobe epilepsy, which is the most common and drug-resistant type of adult focal epilepsy (Morimoto et al., 2004). […] This acquired hyper-responsiveness is called kindling and results not only in increased seizure responses but also in an elongation of the after-discharge duration seen on an EEC recording.
Electrodes are implanted into the hippocampus of anesthetized rats, which are then allowed to recover for one week. Following the rapid kindling protocol (Lothman and Williamson, Brain Res 1994, 649:71-84), the rats are stimulated with 200 jiA for 10 s, 50 Hz, every 30 minutes for six hours on alternate days until they are fully kindled (4-5 stimulus days). After one week of rest, the animals are given the same electrical stimulus which serves as a baseline. The animals are pretreated with the test compound (generally via i.p. injection) and then tested at various intervals. At each time point, the behavioral seizure score (BSS) and after-discharge duration (ADD) is recorded. The BSS's are scored according to the following criteria (Racine, Electroencephalogr Clin Neurophysiol 1972, 32:281-94): Stage 1—mouth and facial clonus; Stage 2—stage 1 plus head nodding; Stage 3—stage 2 plus forelimb clonus; Stage 4—stage 3 plus rearing; and Stage 5—stage 4 plus repeated rearing and falling.
The after discharge threshold (ADT) can also be measured in the kindled rat. The ADT is defined as the lowest current at which an after discharge of at least 4 s is elicited. […] The initial stimulation is conducted at an intensity of 20 uA with 10 uA increments every 1-2 min until an after discharge is elicited. Fifteen minutes after the pre-drug threshold determination, a single dose of the test substance is administered to two animals in a volume of 0.04 ml/10 g body weight. In this way the animals serves as its own control. The individual rat ADT is then determined at varying times (i.e., 0.25, 1, 2, and 4 hr) after drug administration.
Ability of a compound to block behavioral seizures and/or decrease the afterdischarge duration (ADD) in a hippocampal kindled rat model. The hippocampal kindled rat provides an experimental model of focal seizures that become secondarily generalized. This rat model is useful for not only identifying compounds effective against partial seizures, but also allows for the investigation of complex brain networks that may contribute to seizure spread and generalization from a focus. Moreover, of the various electrical kindling paradigms described in the literature, the hippocampal kindling model offers several distinct advantages for the routine screening and evaluation of potential anticonvulsant compounds. First, this model provides a temporal framework for assessing drug efficacy in a focal seizure model. Specifically, the refractory period of individual animals is sufficiently short to permit repeated stimulations over a short time span. Second, this kindled rat model can be employed to assess the ability of an investigational compound to block fully kindled seizures evoked by an electrical stimulus. Finally, the hippocampal kindled rat model can also be used to assess the ability of an investigational compound to elevate threshold to focal firing modulation by an investigational drug. Therefore, compounds with a subtle effect on focal seizure activity in the kindled rat are not likely to be overlooked in the threshold test, thereby making the hippocampal kindled rat a useful screen at the ETSP.
Animals are first surgically prepared for kindling acquisition. Adult, male Sprague-Dawley rats (275-300 g) are surgically implanted with bipolar electrodes. Briefly, a bipolar electrode is stereoaxically implanted into the ventral hippocampus (AP −3.6, ML −4.9, VD −5.0 from dura, incisor bar +5.0) under ketamine-xylazine anesthesia. […]

ED50 at 0.5 hour (gross motor function [1])	ED50 at 0.5 hour (gross motor function [2])	Structure (SMILES)	ED50 (6 Hz psychomotor seizure)	suppression of fully kindled (stage 5) seizures compared to vehicle controls [3]	Average Seizure ([3]; 20 mg/kg)	N/F, number of animals active over the number tested ([3]; 20 mg/kg)	Average Seizure ([3]; 40 mg/kg)	N/F, number of animals active over the number tested ([3]; 40 mg/kg)	Average Seizure ([3]; 80 mg/kg)	N/F, number of animals active over the number tested ([3]; 80 mg/kg)	EC50, reduction of seizure score (seizure severity) ([3]; hippocampal kindled rat, Example 8)
> 500 mg/kg	> 130 mg/kg	NC(=O)COc1cc(C(F)(F)F)cc(C(F)(F)F)c1 [I(F), 2-[3,5 bis(trifluoromethyl)-phenoxy]acetamide;]	38.5 ± 1 mg/kg	dose related suppression							
> 500 mg/kg	> 170 mg/kg	C[C@@H](Oc1cc(Cl)cc(C(F)(F)F)c1)C(N)=O [I(D), (2R)-2-[3-chloro-5-(trifluoromethyl)-phenoxy]propanamide]	48.5 ± 1 mg/kg	dose related suppression	4.9	1/8	2.5	1/8	1	5/8	49.4 ± 1.47 mg/kg
